Publication PMC7351026, “Serum Half-Lives for Short- and Long-Chain Perfluoroalkyl Acids after Ceasing Exposure from Drinking Water Contaminated by Firefighting Foam” (Environmental Health Perspectives, 2020)

Key:
[1] = Population average serum elimination rate and half-life (linear mixed model, one compartment, first-order); conditions: population average
In short: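 Log-transformed serum PFAS fitted with a linear mixed model (random intercept only; age and sex as covariates), assuming one-compartment first-order elimination. Time counted in days from clean-water supply to first sampling. k is the negative average slope; half-life = ln2/k; sensitivity run after subtracting reference-population median background.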

[2] = Individual serum elimination rate and half-life (linear regression per employee); conditions: individual estimate;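 on HL (half-life): half-life in years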
Procedure: Serum PFAS concentrations were log-transformed. Time was calculated as the elapsed days between supply of clean bottled water and […] blood sampling. We assumed one compartment, first-order elimination kinetics. In this kinetic model, the body is considered as one homogeneous volume in which mixing is instantaneous and from which PFAS could be absorbed, transferred, and eliminated according to the rate of elimination that is proportional to the concentration of PFAS in the body. Two methods were used to estimate serum elimination rate constant (k) and half-life for each PFAS:
Method 2: For estimation of individual k, linear regression was used to derive the slope ( β ) of the logarithm of serum concentrations vs. time for each employee. The negative value of the slope ( −β ) for each individual was equivalent to the individual k, and individual serum elimination half-life was calculated as ln2/k for each PFAS. If β was positive (i.e., PFAS concentrations tended to increase over the five samplings), the half-life was not calculated.

[3] = Background serum PFAS levels in reference population from Karlshamn; format: in vivo, human; conditions: reference group from Karlshamn without PFAS contamination in drinking water, N=58, sampled 2016
Excerpt: For comparison with Swedish general background PFAS serum levels, we referred to the PFAS levels observed in a reference population from Karlshamn, a municipality in southern Sweden without PFAS contamination in the municipal drinking water. In 2016, 226 individuals were sampled. Fifty-nine individuals were randomly selected for analyzing other short-chain PFAS than the legacy ones, using the same modified method as for the airport employees. Fifty-eight individuals within the same age range as the airport employees (i.e., >22 years of age ) were included in the comparison. For a detailed description of this population see Li et al. ([2018]).

[4] = PFAS levels in urine samples of airport employees, specific-gravity adjusted (LC/MS/MS); format: in vivo, human
Procedure: Only one employee provided a single urine sample. […] All employees provided written informed consent.
The samples were thawed 1–2 h, then mixed by vortex shaker and manual turning. […] For the urine samples, 50μL urine was mixed with 25μL of methanol and 25μL of a 50% acetonitrile solution containing isotopically labeled internal standards (see Table S1). Then samples were shaken vigorously for 30 min and centrifuged at 3,000×g for 10 min at room temperature.
Aliquots of 20μL of the sample were analyzed using LC/MS/MS. […] The analysis was performed in negative ion mode. The ion source temperature was at 350°C.
(§1) Urinary PFAS concentrations were specific-gravity adjusted. The ratio of urine and serum concentration for each PFAS (urine/serum ratio) at each sampling was calculated based on PFAS concentrations in paired serum and urine samples from 17 employees. Then the personal average urine/serum ratio was calculated using the mean value of repeated samplings for each employee.

[5] = Urine/serum ratio in paired samples; format: in vivo, human; conditions: mean of four paired samplings per subject, 17 airport employees
Procedure: as §1

[6] = model with original serum levels, age and sex as covariates
[7] = model with serum levels after subtraction of background exposure (sensitivity analysis)
[8] = 2nd sampling (October 2018), count 17
[9] = 3rd sampling (November, 2018), count 16
[10] = 4th sampling (December 2018), count 14
[11] = 5th sampling (January 2019), count 12

With O=S(=O)(O)C(F)(C(F)(F)F)C(F)(F)C(F)(F)C(F)(F)C(F)(F)C(F)(F)C(F)(F)F (centres unmarked) [1m-PFOS, perfluoro-1-methylheptanesulfonate] the “Constant elimination rate (95% CI)” value [1, 6] was 0.55 (0.09, 1.01) yearly, the “Half-life (95% CI)” value [1, 6] was 1.27 (0.69, 7.64) year and the “Constant elimination rate (95% CI)” value [1, 7] was 0.75 (0.15, 1.36) yearly. The “Half-life (95% CI)” value [1, 7] was 0.92 (0.51, 4.77) year, the Elimination rate ([2]; subject 1, 5 samples) was 0.3 yearly and the “HL (half-life)” value ([2]; subject 1, 5 samples) was 2.0 year. The Elimination rate ([2]; subject 2, 5 samples) was 0.1 yearly, the “HL (half-life)” value ([2]; subject 2, 5 samples) was 5.4 year and the Elimination rate ([2]; subject 3, 5 samples) was 0.8 yearly. For the same molecule, the “HL (half-life)” value ([2]; subject 3, 5 samples) was 0.9 year, the Elimination rate ([2]; subject 4, 5 samples) was −0.1 yearly and the Elimination rate ([2]; subject 5, 5 samples) was 0.1 yearly. For the same molecule, the “HL (half-life)” value ([2]; subject 5, 5 samples) was 5.9 year, the Elimination rate ([2]; subject 6, 4 samples) was −0.1 yearly and the Elimination rate ([2]; subject 7, 5 samples) was −0.3 yearly. For the same molecule, the Elimination rate ([2]; subject 8, 5 samples) was −0.5 yearly, the Elimination rate ([2]; subject 9, 5 samples) was −0.3 yearly and the Elimination rate ([2]; subject 10, 5 samples) was 0.6 yearly. For the same molecule, the “HL (half-life)” value ([2]; subject 10, 5 samples) was 1.2 year, the Elimination rate ([2]; subject 11, 5 samples) was 1.9 yearly and the “HL (half-life)” value ([2]; subject 11, 5 samples) was 0.4 year. For the same molecule, the Elimination rate ([2]; subject 12, 5 samples) was 0.03 yearly, the Elimination rate ([2]; subject 13, 5 samples) was 1.1 yearly and the “HL (half-life)” value ([2]; subject 13, 5 samples) was 0.6 year. The Elimination rate ([2]; subject 14, 4 samples) was 1.7 yearly, the “HL (half-life)” value ([2]; subject 14, 4 samples) was 0.4 year and the Elimination rate ([2]; subject 15, 5 samples) was 1.3 yearly. The “HL (half-life)” value ([2]; subject 15, 5 samples) was 0.6 year, the Elimination rate ([2]; subject 16, 5 samples) was −0.3 yearly and the Elimination rate ([2]; subject 17, 5 samples) was 2.2 yearly. For the same molecule, the “HL (half-life)” value ([2]; subject 17, 5 samples) was 0.3 year and the “PFAS serum level, median (range)” value [3] was 0.18 ( <LOD –0.59) ng/mL.
In the case of “Perfluoro-2/6-methylheptanesulfonate [2/6m-PFOS]”, the “Constant elimination rate (95% CI)” value [1, 6] is reported as 0.66 (0.29, 1.04) yearly, the “Half-life (95% CI)” value [1, 6] is reported as 1.04 (0.67, 2.42) year and the “Constant elimination rate (95% CI)” value [1, 7] is reported as 0.95 (0.39, 1.5) yearly. For the same molecule, the “Half-life (95% CI)” value [1, 7] was 0.73 (0.46, 1.76) year, the “Specific gravity adjusted urinary level, 25 percentile” value [4, 8] was “< LOD” and the “Specific gravity adjusted urinary level, 75 percentile” value [4, 8] was “< LOD”. The “Specific gravity adjusted urinary level, Max” value [4, 8] was “< LOD”, the “Specific gravity adjusted urinary level, Median” value [4, 8] was “< LOD” and the “Specific gravity adjusted urinary level, Min” value [4, 8] was “< LOD”. For the same molecule, the “Specific gravity adjusted urinary level, 25 percentile” value [4, 9] was “< LOD”, the “Specific gravity adjusted urinary level, 75 percentile” value [4, 9] was “< LOD” and the “Specific gravity adjusted urinary level, Max” value [4, 9] was 0.04 ng/mL. For the same molecule, the “Specific gravity adjusted urinary level, Median” value [4, 9] was “< LOD”, the “Specific gravity adjusted urinary level, Min” value [4, 9] was “< LOD” and the “Specific gravity adjusted urinary level, 25 percentile” value [4, 10] was “< LOD”. The “Specific gravity adjusted urinary level, 75 percentile” value [4, 10] was “< LOD”, the “Specific gravity adjusted urinary level, Max” value [4, 10] was 1.60 ng/mL and the “Specific gravity adjusted urinary level, Median” value [4, 10] was “< LOD”. The “Specific gravity adjusted urinary level, Min” value [4, 10] was “< LOD”, the “Specific gravity adjusted urinary level, 25 percentile” value [4, 11] was “< LOD” and the “Specific gravity adjusted urinary level, 75 percentile” value [4, 11] was “< LOD”. For the same molecule, the “Specific gravity adjusted urinary level, Max” value [4, 11] was 0.03 ng/mL, the “Specific gravity adjusted urinary level, Median” value [4, 11] was “< LOD” and the “Specific gravity adjusted urinary level, Min” value [4, 11] was “< LOD”. For the same molecule, the Elimination rate ([2]; subject 1, 5 samples) was −0.2 yearly, the Elimination rate ([2]; subject 2, 5 samples) was 0.5 yearly and the “HL (half-life)” value ([2]; subject 2, 5 samples) was 1.3 year. For the same molecule, the Elimination rate ([2]; subject 3, 5 samples) was 0.7 yearly, the “HL (half-life)” value ([2]; subject 3, 5 samples) was 1.0 year and the Elimination rate ([2]; subject 4, 5 samples) was 0.0 yearly. The Elimination rate ([2]; subject 5, 5 samples) was 0.4 yearly, the “HL (half-life)” value ([2]; subject 5, 5 samples) was 1.6 year and the Elimination rate ([2]; subject 6, 4 samples) was 0.4 yearly. For the same molecule, the “HL (half-life)” value ([2]; subject 6, 4 samples) was 1.7 year, the Elimination rate ([2]; subject 7, 5 samples) was 1.1 yearly and the “HL (half-life)” value ([2]; subject 7, 5 samples) was 0.6 year. The Elimination rate ([2]; subject 8, 5 samples) was −0.2 yearly, the Elimination rate ([2]; subject 9, 5 samples) was 0.2 yearly and the “HL (half-life)” value ([2]; subject 9, 5 samples) was 4.2 year. For the same molecule, the Elimination rate ([2]; subject 10, 5 samples) was −0.007 yearly, the Elimination rate ([2]; subject 11, 5 samples) was 1.7 yearly and the “HL (half-life)” value ([2]; subject 11, 5 samples) was 0.4 year. For the same molecule, the Elimination rate ([2]; subject 12, 5 samples) was 1.7 yearly, the “HL (half-life)” value ([2]; subject 12, 5 samples) was 0.4 year and the Elimination rate ([2]; subject 13, 5 samples) was 1.0 yearly. The “HL (half-life)” value ([2]; subject 13, 5 samples) was 0.7 year, the Elimination rate ([2]; subject 14, 4 samples) was 1.5 yearly and the “HL (half-life)” value ([2]; subject 14, 4 samples) was 0.5 year. The Elimination rate ([2]; subject 15, 5 samples) was 1.2 yearly, the “HL (half-life)” value ([2]; subject 15, 5 samples) was 0.6 year and the Elimination rate ([2]; subject 16, 5 samples) was −0.1 yearly. The Elimination rate ([2]; subject 17, 5 samples) was 1.9 yearly, the “HL (half-life)” value ([2]; subject 17, 5 samples) was 0.4 year and the “PFAS serum level, median (range)” value [3] was 0.46 ( <LOD –1.4) ng/mL. The “Personal average urine/serum ratio, median (range)” value [5] was 0.0051 (0.00059–0.032).
For “perfluoro-3/4/5-methylheptanesulfonate [3/4/5m-PFOS]”, the “Constant elimination rate (95% CI)” value [1, 6] was 0.64 (0.18, 1.1) yearly, the “Half-life (95% CI)” value [1, 6] was 1.09 (0.63, 3.96) year and the “Constant elimination rate (95% CI)” value [1, 7] was 0.83 (0.24, 1.42) yearly. The “Half-life (95% CI)” value [1, 7] was 0.83 (0.49, 2.84) year, the Elimination rate ([2]; subject 1, 5 samples) was 0.4 yearly and the “HL (half-life)” value ([2]; subject 1, 5 samples) was 1.9 year. The Elimination rate ([2]; subject 2, 5 samples) was 0.3 yearly, the “HL (half-life)” value ([2]; subject 2, 5 samples) was 2.1 year and the Elimination rate ([2]; subject 3, 5 samples) was 0.4 yearly. The “HL (half-life)” value ([2]; subject 3, 5 samples) was 1.7 year, the Elimination rate ([2]; subject 4, 5 samples) was 0.1 yearly and the “HL (half-life)” value ([2]; subject 4, 5 samples) was 11 year. The Elimination rate ([2]; subject 5, 5 samples) was 0.2 yearly, the “HL (half-life)” value ([2]; subject 5, 5 samples) was 3.1 year and the Elimination rate ([2]; subject 6, 4 samples) was 0.04 yearly. The “HL (half-life)” value ([2]; subject 6, 4 samples) was 19 year, the Elimination rate ([2]; subject 7, 5 samples) was 0.1 yearly and the “HL (half-life)” value ([2]; subject 7, 5 samples) was 4.8 year. For the same molecule, the Elimination rate ([2]; subject 8, 5 samples) was −0.2 yearly, the Elimination rate ([2]; subject 9, 5 samples) was 0.1 yearly and the “HL (half-life)” value ([2]; subject 9, 5 samples) was 10 year. For the same molecule, the Elimination rate ([2]; subject 10, 5 samples) was 0.2 yearly, the “HL (half-life)” value ([2]; subject 10, 5 samples) was 4.0 year and the Elimination rate ([2]; subject 11, 5 samples) was 2.0 yearly. The “HL (half-life)” value ([2]; subject 11, 5 samples) was 0.4 year, the Elimination rate ([2]; subject 12, 5 samples) was 0.5 yearly and the “HL (half-life)” value ([2]; subject 12, 5 samples) was 1.3 year. The Elimination rate ([2]; subject 13, 5 samples) was 0.5 yearly, the “HL (half-life)” value ([2]; subject 13, 5 samples) was 1.5 year and the Elimination rate ([2]; subject 14, 4 samples) was 0.3 yearly. The “HL (half-life)” value ([2]; subject 14, 4 samples) was 2.0 year, the Elimination rate ([2]; subject 15, 5 samples) was 2.2 yearly and the “HL (half-life)” value ([2]; subject 15, 5 samples) was 0.3 year. For the same molecule, the Elimination rate ([2]; subject 16, 5 samples) was 0.3 yearly, the “HL (half-life)” value ([2]; subject 16, 5 samples) was 2.0 year and the Elimination rate ([2]; subject 17, 5 samples) was 1.9 yearly. The “HL (half-life)” value ([2]; subject 17, 5 samples) was 0.4 year and the “PFAS serum level, median (range)” value [3] was 0.79 (0.10–2.2) ng/mL.
